From patent US20240108006A1, “PESTICIDALLY ACTIVE HETEROAROMATIC COMPOUNDS” (SYNGENTA CROP PROTECTION AG, priority 2021, published 2024) come the findings set out here.

Holding throughout (assay type): in vivo
The test system of one assay is Plutella xylostella. In words: Example B8: Plutella xylostella (diamond back moth), artificial diet 24-well, eggs. As to conditions: 192 h, application rate of 200 ppm, 8 days after infestation, read-out: effect in at least one of the two categories (mortality or growth inhibition). In a few lines: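 Artificial diet in 24-well plates treated with aqueous dilutions of DMSO stock (10,000 ppm stock) and dried, then infested with Plutella eggs. Mortality and growth inhibition scored versus untreated samples 8 days after infestation.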

A further assay has as its system Myzus persicae. Description: Example B7: Myzus persicae (green peach aphid), intrinsic activity, sucrose solution 24-well. As to conditions: 120 h, read-out: control (mortality). The source says: Example B7: Myzus persicae (Green Peach Aphid). Intrinsic Activity
Test compounds prepared from 10,000 ppm DMSO stock solutions were applied by pipette into 24-well microtiter plates and mixed with sucrose solution. The plates were closed with a stretched Parafilm. A plastic stencil with 24 holes was placed onto the plate and infested pea seedlings were placed directly on the Parafilm. The infested plate was closed with a gel blotting paper and another plastic stencil and then turned upside down. The samples were assessed for mortality 5 days after infestation.
The following compounds gave an effect of at least 80% control at an application rate of 12.5 ppm: […]

The test system of another assay is Chilo suppressalis. Description: Example B1: Chilo suppressalis (striped rice stemborer), artificial diet, L2 larvae. The conditions noted are these: 144 h, application rate of 200 ppm, 6 days after infestation, read-out: control in at least one of the three categories (mortality, anti-feedant effect, or growth inhibition). In a few lines:
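Artificial diet was treated with aqueous test solutions made from 10,000 ppm DMSO stocks, dried, then infested with L2 larvae (6-8 per well). Mortality, anti-feeding effect and growth inhibition were scored against untreated samples 6 days after infestation, and control was counted when any category exceeded untreated.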

A further assay concerns Spodoptera littoralis. Description: Example B9: Spodoptera littoralis (Egyptian cotton leaf worm), cotton leaf discs, L1 larvae. The conditions noted are these: foliar, 72 h, application rate of 200 ppm, 3 days after infestation, read-out: control in at least one of the three categories (mortality, anti-feedant effect, or growth inhibition). In short, it runs like this:
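Cotton leaf discs on agar sprayed with aqueous test solutions from 10,000 ppm DMSO stocks, dried, then infested with five L1 larvae. Mortality, anti-feeding and growth inhibition scored against untreated samples 3 days after infestation.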

[1] abbreviates: application rate of 12.5 ppm, 5 days after infestation.

Read-outs that look alike come from different tables or passages of the source.

On to `CCCOc1cc(NC(=O)N[C@@H](C)c2ncnn2-c2ncccn2)c(F)cc1Br` [Example P231, 1-(4-bromo-2-fluoro-5-propoxy-phenyl)-3-[(1S)-1-(2-pyrimidin-2-yl-1,2,4-triazol-3-yl)ethyl]urea], for which the percent effect (mortality or growth inhibition) at 200 ppm in the assay with Plutella xylostella is at least 80%. Moreover, the mortality at 12.5 ppm in the assay with Myzus persicae (setting [1]) is at least 80%. Regarding `C[C@H](NC(=O)Nc1ccc(C#N)cc1Br)c1ncnn1-c1ncccn1` [Example P30, 1-(2-bromo-4-cyano-phenyl)-3-[(1S)-1-(2-pyrimidin-2-yl-1,2,4-triazol-3-yl)ethyl]urea], in the assay on Chilo suppressalis, the percent control (mortality, anti-feedant effect or growth inhibition) at 200 ppm was at least 80%. In addition, the mortality at 12.5 ppm in the assay with Myzus persicae (setting [1]) is at least 80%. Turning to `COC(=O)c1cc(NC(=O)N[C@@H](C)c2ncnn2-c2ncccn2)c(C)cc1C` [Example P315, methyl 2,4-dimethyl-5-[[(1S)-1-(2-pyrimidin-2-yl-1,2,4-triazol-3-yl)ethyl]carbamoylamino]benzoate], the mortality at 12.5 ppm in the assay on Myzus persicae (setting [1]) is at least 80%. Consider `C[C@H](NC(=O)Nc1cc(Cl)c(C#N)cc1Cl)c1ncnn1-c1ncccn1` [Example P179, 1-(2,5-dichloro-4-cyano-phenyl)-3-[(1S)-1-(2-pyrimidin-2-yl-1,2,4-triazol-3-yl)ethyl]urea], for which the mortality at 12.5 ppm in the assay on Myzus persicae is at least 80%. Take `C[C@H](NC(=O)Nc1ccc(C(F)(F)F)cc1)c1ncnn1-c1ncccn1` [Example P122, 1-[(1S)-1-(2-pyrimidin-2-yl-1,2,4-triazol-3-yl)ethyl]-3-[4-(trifluoromethyl)phenyl]urea]: in the assay with Myzus persicae (setting [1]), the mortality at 12.5 ppm is at least 80%. As to `COc1cc(NC(=O)N[C@@H](C)c2ncnn2-c2ncccn2)c(C2CC2)cc1Cl` [Example P355, 1-(4-chloro-2-cyclopropyl-5-methoxy-phenyl)-3-[(1S)-1-(2-pyrimidin-2-yl-1,2,4-triazol-3-yl)ethyl]urea], the percent control (mortality, anti-feedant effect or growth inhibition) at 200 ppm in the assay on Chilo suppressalis is at least 80%. Besides, the mortality at 12.5 ppm in the assay on Myzus persicae (setting [1]) is at least 80%. As for `C[C@H](NC(=O)Nc1ccc(F)cc1S(C)(=O)=O)c1ncnn1-c1ncccn1` [Example P99, 1-(4-fluoro-2-methylsulfonyl-phenyl)-3-[(1S)-1-(2-pyrimidin-2-yl-1,2,4-triazol-3-yl)ethyl]urea], the mortality at 12.5 ppm in the assay on Myzus persicae (setting [1]) is at least 80%. As for `C[C@H](NC(=O)Nc1ccc(Br)cc1I)c1ncnn1-c1ncccn1` [Example P76, 1-(4-bromo-2-iodo-phenyl)-3-[(1S)-1-(2-pyrimidin-2-yl-1,2,4-triazol-3-yl)ethyl]urea], the percent control (mortality, anti-feedant effect or growth inhibition) at 200 ppm in the assay with Chilo suppressalis and with Spodoptera littoralis was at least 80% in each case. In the assay on Plutella xylostella, the percent effect (mortality or growth inhibition) at 200 ppm was at least 80%. As for `COc1cc(NC(=O)N[C@@H](C)c2ncnn2-c2ncccn2)c(Cl)cc1Cl` [Example P265, 1-(2,4-dichloro-5-methoxy-phenyl)-3-[(1S)-1-(2-pyrimidin-2-yl-1,2,4-triazol-3-yl)ethyl]urea], the percent control (mortality, anti-feedant effect or growth inhibition) at 200 ppm in the assay on Chilo suppressalis and in the assay on Spodoptera littoralis was at least 80% throughout. In addition, the percent effect (mortality or growth inhibition) at 200 ppm in the assay with Plutella xylostella was at least 80%. In the case of `COc1cc(Cl)c(NC(=O)N[C@@H](C)c2ncnn2-c2ncccn2)cc1OC` [Example P304, 1-(2-chloro-4,5-dimethoxy-phenyl)-3-[(1S)-1-(2-pyrimidin-2-yl-1,2,4-triazol-3-yl)ethyl]urea], the percent effect (mortality or growth inhibition) at 200 ppm in the assay with Plutella xylostella is at least 80%. Also, the mortality at 12.5 ppm in the assay on Myzus persicae (setting [1]) is at least 80%. For the compound `Cc1cc(Br)c(F)cc1NC(=O)N[C@@H](C)c1ncnn1-c1ncccn1` [Example P367, 1-(4-bromo-5-fluoro-2-methyl-phenyl)-3-[(1S)-1-(2-pyrimidin-2-yl-1,2,4-triazol-3-yl)ethyl]urea], the percent control (mortality, anti-feedant effect or growth inhibition) at 200 ppm with Chilo suppressalis and in the assay on Spodoptera littoralis was at least 80% in each case. In addition, the percent effect (mortality or growth inhibition) at 200 ppm with Plutella xylostella is at least 80%.

In general, mortality refers to the percentage killed.
